{
  "source": "patent USRE46856E1",
  "about": "“Substituted 2,3-dihydroimidazo[1,2-c]quinazoline derivatives useful for treating hyper-proliferative disorders and diseases associated with angiogenesis” (Bayer Intellectual Property GmbH, priority 2006, dated 2018)",
  "key": {"[1]": {"test_system": "IGF-1 induced AKT phosphorylation in A549 cells", "assay": "IGF-1 induced AKT phosphorylation assay (A549 cell assay)", "type": "cell-based", "conditions": "Homo sapiens; A549 cells, 25 ng/ml IGF-1, phospho-AKT(Ser 473); read-out: average IC50 in the A549 cell assay", "summary_of_the_method": "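A549 cells stimulated with 25 ng/ml IGF-1 for 10 min at 37 °C, then fixed in formaldehyde/methanol. Phospho-AKT detected by cell ELISA (primary anti-phospho-AKT, HRP secondary, ECL luminescence); IC50 from inhibition curve.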"}, "[2]": {"target": "T1, PI3Kβ (Homo sapiens, UniProt P42338)", "T1 construct": "His6 (N); made in house; host or cells: S. frugiperda 9 (Sf9) insect cells", "T1 sequence (P42338 109-1070)": "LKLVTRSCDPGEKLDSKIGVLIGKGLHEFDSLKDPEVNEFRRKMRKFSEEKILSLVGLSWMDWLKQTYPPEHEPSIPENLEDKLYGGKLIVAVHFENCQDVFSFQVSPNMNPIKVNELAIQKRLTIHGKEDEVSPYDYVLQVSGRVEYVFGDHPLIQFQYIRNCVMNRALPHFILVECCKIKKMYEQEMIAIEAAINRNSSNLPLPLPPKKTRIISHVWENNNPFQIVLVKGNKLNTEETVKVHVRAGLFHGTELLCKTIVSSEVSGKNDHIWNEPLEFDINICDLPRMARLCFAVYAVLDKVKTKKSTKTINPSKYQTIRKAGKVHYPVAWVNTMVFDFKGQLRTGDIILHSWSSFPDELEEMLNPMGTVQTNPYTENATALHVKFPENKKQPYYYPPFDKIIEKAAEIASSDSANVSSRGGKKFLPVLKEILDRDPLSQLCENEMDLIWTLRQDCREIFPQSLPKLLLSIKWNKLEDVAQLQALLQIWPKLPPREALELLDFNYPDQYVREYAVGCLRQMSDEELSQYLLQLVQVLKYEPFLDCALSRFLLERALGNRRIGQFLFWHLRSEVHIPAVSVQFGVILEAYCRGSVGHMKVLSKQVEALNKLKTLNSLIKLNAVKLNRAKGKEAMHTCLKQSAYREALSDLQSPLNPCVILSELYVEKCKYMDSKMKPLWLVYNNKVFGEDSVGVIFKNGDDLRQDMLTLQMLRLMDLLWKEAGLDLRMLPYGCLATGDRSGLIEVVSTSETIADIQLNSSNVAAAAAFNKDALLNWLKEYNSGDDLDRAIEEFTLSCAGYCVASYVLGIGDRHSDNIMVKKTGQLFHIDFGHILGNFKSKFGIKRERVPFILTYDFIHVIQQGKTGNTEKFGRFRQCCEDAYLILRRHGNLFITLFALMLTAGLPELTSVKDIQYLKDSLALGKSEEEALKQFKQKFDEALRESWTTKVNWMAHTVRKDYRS", "assay": "Isozyme selectivity test: kinase assay of PI3Kβ (p110β assay)", "type": "biochemical", "conditions": "recombinant truncated p110β, 7.5 ng protein/well", "source_text": "[Isozyme Selectivity Test in PI3K]\nDetermination of IC50 Values of Compounds in Kinase Assays of PI3Kβ and PI3Kγ"}, "[3]": {"target": "T2, PI3Kα (Homo sapiens, UniProt P42336)", "T2 construct": "His6 (N); made in house; host or cells: S. frugiperda 9 (Sf9) insect cells", "T2 sequence (P42336 109-1068)": "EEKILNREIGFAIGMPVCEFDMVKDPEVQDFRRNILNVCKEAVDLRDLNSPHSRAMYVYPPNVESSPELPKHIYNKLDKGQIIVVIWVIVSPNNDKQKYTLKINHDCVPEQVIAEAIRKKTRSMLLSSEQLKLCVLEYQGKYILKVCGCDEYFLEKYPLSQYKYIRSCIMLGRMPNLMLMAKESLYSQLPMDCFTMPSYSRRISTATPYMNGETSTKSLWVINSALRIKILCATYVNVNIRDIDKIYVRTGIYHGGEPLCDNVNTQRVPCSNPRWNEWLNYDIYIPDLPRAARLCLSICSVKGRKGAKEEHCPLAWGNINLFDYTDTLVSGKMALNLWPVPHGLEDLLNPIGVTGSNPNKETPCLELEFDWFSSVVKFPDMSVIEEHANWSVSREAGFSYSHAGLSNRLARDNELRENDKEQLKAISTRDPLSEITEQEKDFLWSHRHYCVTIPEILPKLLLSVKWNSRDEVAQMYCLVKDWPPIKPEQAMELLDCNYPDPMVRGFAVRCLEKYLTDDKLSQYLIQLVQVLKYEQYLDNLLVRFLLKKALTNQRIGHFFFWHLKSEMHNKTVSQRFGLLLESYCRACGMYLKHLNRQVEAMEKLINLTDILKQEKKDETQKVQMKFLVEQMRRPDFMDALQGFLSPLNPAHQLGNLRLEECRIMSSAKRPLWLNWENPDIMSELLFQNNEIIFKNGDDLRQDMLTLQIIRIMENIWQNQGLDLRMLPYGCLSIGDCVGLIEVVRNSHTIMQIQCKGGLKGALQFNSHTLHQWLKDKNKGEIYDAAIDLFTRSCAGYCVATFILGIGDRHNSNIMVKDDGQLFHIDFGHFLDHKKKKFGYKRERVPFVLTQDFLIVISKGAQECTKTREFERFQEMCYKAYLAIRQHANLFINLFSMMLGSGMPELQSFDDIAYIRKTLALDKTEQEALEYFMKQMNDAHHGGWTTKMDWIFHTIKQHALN", "assay": "Solid-phase lipid kinase assay of PI3Kα (p110α assay)", "type": "biochemical", "conditions": "recombinant truncated human p110α, 10 μM ATP", "source_text": "[Determination of IC50 Values of Compounds in Kinase Assay of PI3Kα]\nLABORATORIES (Toronto, Canada). […] [γ^33P]ATP and unlabeled ATP were purchased from […] […] BIOTECH (Buckinghamshire, UK) and ROCHE DIAGNOSTICS (Mannheim, Germany), respectively. Scintillation cocktails and MicroScint PS™ were purchased from PACKARD (Meriden, Conn.). Maxisorp™ plates were purchased from NALGE NUNC INTERNATIONAL K.K. (Tokyo, Japan). All other chemicals not further specified were from WAKO PURE CHEMICALS (Osaka, Japan).\nThe plates were subsequently air-dried by incubation for at least 2 hours in a fume hood. The reaction was set up by mixing 25 μL/well of assay buffer 2×(100 mM MOPSO/NaOH, 0.2 M NaCl, pH 7.0, 8 mM MgCl2, 2 mg/mL BSA (fatty acid-free)), and 7.5 ng/well PI3Kα in the lipid pre-coated plate. 100× test compounds were added in 2% DMSO. The reaction was started by adding 20 μL/well of ATP mix (final 10 μM ATP; 0.05 μCi/well [γ^33P]ATP). After incubation at RT for 2 hours, the reaction was terminated by adding 50 μl/well stop solution (50 mM EDTA, pH 8.0). The plate was then washed twice with Tris-buffered saline (TBS, pH 7.4). MicroScint PS™ (PACKARD) scintillation mix was added at 100 μL/well, and radioactivity was counted using a TopCount™ (PACKARD) scintillation counter.\nThe inhibition percent at each concentration of compound was calculated, and IC50 values were determined from the inhibition of curve."}},
  "data": [
    {"compound": "COc1c(OCCCN2CCOCC2)ccc2c1N=C(NC(=O)c1ccc(NC(=O)C(C)(C)C)nc1)N1CCN=C21", "note": "[Example 59, 6-[(2,2-dimethylpropanoyl)amino]-N-[7-methoxy-8-(3-morpholin-4-ylpropoxy)-2,3-dihydroimidazo[1,2-c]quinazolin-5-yl]nicotinamide]", "values": [
      {"measurement": "IC50", "setting": "[1]", "value": "> 1000", "unit": "nM"},
      {"measurement": "IC50", "setting": "[2]", "value": "> 100", "unit": "nM"},
      {"measurement": "IC50", "setting": "[3]", "value": "> 100", "unit": "nM"}
    ]},
    {"compound": "COc1c(OCCCN2CCOCC2)ccc2c1N=C(NC(=O)c1ccc(N3CCOCC3)nc1)N1CCN=C21", "note": "[Example 57, N-[7-methoxy-8-(3-morpholin-4-ylpropoxy)-2,3-dihydroimidazo[1,2-c]quinazolin-5-yl]-6-morpholin-4-ylnicotinamide]", "values": [
      {"measurement": "IC50", "setting": "[1]", "value": "100 to 1000", "unit": "nM"},
      {"measurement": "IC50", "setting": "[2]", "value": "10 to 100", "unit": "nM"},
      {"measurement": "IC50", "setting": "[3]", "value": "10 to 100", "unit": "nM"}
    ]},
    {"compound": "COCCN1CCOC(CCOc2ccc3c(c2OC)N=C(NC(=O)c2cccnc2)N2CCN=C32)C1", "note": "(stereo not drawn) [Example 20, N-(7-methoxy-8-{2-[4-(2-methoxyethyl)morpholin-2-yl]ethoxy}-2,3-dihydroimidazo[1,2-c]quinazolin-5-yl)nicotinamide]", "values": [
      {"measurement": "IC50", "setting": "[1]", "value": "< 100", "unit": "nM"},
      {"measurement": "IC50", "setting": "[2]", "value": "< 10", "unit": "nM"},
      {"measurement": "IC50", "setting": "[3]", "value": "< 10", "unit": "nM"}
    ]},
    {"compound": "COCCCNc1ncc(C(=O)NC2=Nc3c(ccc(OCCCN4CCOCC4)c3OC)C3=NCCN23)cn1", "note": "[Example 41, N-[7-methoxy-8-(3-morpholin-4-ylpropoxy)-2,3-dihydroimidazo[1,2-c]quinazolin-5-yl]-2-[(3-methoxypropyl)amino]pyrimidine-5-carboxamide]", "values": [
      {"measurement": "IC50", "setting": "[1]", "value": "100 to 1000", "unit": "nM"},
      {"measurement": "IC50", "setting": "[2]", "value": "10 to 100", "unit": "nM"},
      {"measurement": "IC50", "setting": "[3]", "value": "10 to 100", "unit": "nM"}
    ]},
    {"compound": "COc1c(OCCCN2C[C@@H](C)O[C@@H](C)C2)ccc2c1N=C(NC(=O)c1ccc(NC(C)=O)nc1)N1CCN=C21", "note": "[Example 29, rel-6-acetamido-N-(8-{3-[(2R,6S)-2,6-dimethylmorpholin-4-yl]propoxy}-7-methoxy-2,3-dihydroimidazo[1,2-c]quinazolin-5-yl)nicotinamide]", "values": [
      {"measurement": "IC50", "setting": "[1]", "value": "< 100", "unit": "nM"},
      {"measurement": "IC50", "setting": "[2]", "value": "< 10", "unit": "nM"},
      {"measurement": "IC50", "setting": "[3]", "value": "< 10", "unit": "nM"}
    ]},
    {"compound": "COc1c(OCCCN(C)C)ccc2c1N=C(NC(=O)c1ccc[n+]([O-])c1)N1CCN=C21", "note": "[Example 12, N-{8-[3-(dimethylamino)propoxy]-7-methoxy-2,3-dihydroimidazo[1,2-c]quinazolin-5-yl}nicotinamide 1-oxide]", "values": [
      {"measurement": "IC50", "setting": "[1]", "value": "> 1000", "unit": "nM"},
      {"measurement": "IC50", "setting": "[2]", "value": "> 100", "unit": "nM"},
      {"measurement": "IC50", "setting": "[3]", "value": "> 100", "unit": "nM"}
    ]}
  ]
}
